Data reported in patent publication US10802012B2, “Optical cytometry to determine cell mass changes in response to a biologically active agent” (The Regents of the University of California, priority 2009, dated 2020).

What was measured:
NIH3T3 cells [1] = assay: Mechanical imaging interferometry (MII) viscoelastic measurement of cells before and after cytochalasin B; format: cell-based, mouse
Procedure: The population measurements of the NIH 3T3 fibroblasts and the HEK 293T […] were conducted over several consecutive days. Both cell types were cultured at the same time on a series of poly-L-lysine coated 0.20×10 mm round glass coverslips, in 1×DMEM with 10% fetal bovine serum in a laboratory incubator under standard cell culture conditions. Preceding measurement, a single round coverslip containing cells would be removed from the culture dish and quickly placed in the microscope test chamber. Microreflectors would be added to media from the original culture dish, which would then be pipetted slowly onto the cells and the sample chamber sealed. Cells were allowed to equilibrate in the test chamber for 30 minutes before measurement. The average radius of the measured microreflectors was 3.79 μm, and the average applied force was 190 pN. The average cell height was 8.1 μm and the average maximum indentation depth per cell was 660 nm.
The three constants for a viscoelastic solid were determined for each measurement by fitting the time-dependent force-displacement curves of the microreflectors to the following equation (see, e.g. Cheng et al., (2005) Mechanics of Materials 37, 213-226):
[formula] Our measurements assumed Poisson's ratio for the cell, v=0.5. Curves were fitted using the Levenberg-Marquardt non-linear least squares procedure (Origin Labs). The z-statistic was used to compare the log-transformed sample means and determine p values. The Bartlett test was used to confirm homogeneity of the compared sample variances.
To remain within the semi-infinite layer assumptions of this model, we present fits only for observations where the minimum cell thickness at the location of the microreflector was 3 μm or greater. A majority of the measurements fit the model elastic constants E1 and E2 well, having a relative standard error of fit <25%. There was larger uncertainty in the viscosity factor, η, with only 30% of the fits having a relative standard error <25%.
(§1) Cells were prepared for measurement as described above. A continuous infusion of fresh media into the sample chamber, warmed to 37 C and pre-saturated with 5%CO2, was maintained at all times. The rate of infusion was 5 μL/min, equivalent to exchanging the entire volume of the test chamber in 20 minutes. Cells were equilibrated under flow for 45 minutes before measurement. Flow was halted during each measurement cycle, which lasted approximately 200 seconds. The first, a media-only measurement was conducted at 1 hour, immediately followed by introduction of cytochalasin B into the infusing media. Initially, the cytochalasin B was dissolved in DMSO and diluted in DMEM to produce a stock concentration 1000× the working concentration (1 μM or 10 μM). At the appropriate time, the stock solution was introduced into the infusion media reservoir to produce the desired final concentration.

NIH3T3 cells [2] = assay: Cell morphology in intensity images during cytochalasin treatment; format: cell-based, mouse; settings: 1 μM, up to 45 minutes
Procedure: as §1

fibroblasts [3] = settings: low doses (0.1-1 μM); cited from earlier work
fibroblasts [4] = settings: low doses (0.1-1 μM); cited from earlier work; remark: listed apart in the source
fibroblasts [5] = settings: low doses (0.1-1 μM); cited from earlier work; remark: listed apart in the source
[6] = NIH3T3 cells, 1 μM, matched individual cell basis
[7] = NIH3T3 cells, FIG. 6B, normal force applied for 100 seconds, before vs after treatment

## C=C1[C@@H](C)[C@H]2[C@H](Cc3ccccc3)NC(=O)[C@]23OC(=O)/C=C/[C@H](O)CCC[C@@H](C)C/C=C/[C@H]3[C@@H]1O [cytochalasin B]
NIH3T3 cells [1]; NIH3T3 cells (n=30), 1 μM, before treatment 2.30, p=0.04
  mean of the log-transformed distribution of E2 (delayed elastic constant) after treatment: 2.02
NIH3T3 cells [1]; NIH3T3 cells (n=30), 1 μM, before treatment 3.19, p=0.10
  mean of the log-transformed distribution of E1 (instantaneous elastic constant) after treatment: 2.92
NIH3T3 cells [1]; NIH3T3 cells (n=30), 1 μM, before treatment 3.39, p=0.47
  mean of the log-transformed viscous constant η after treatment: 3.36
NIH3T3 cells [1]; [6]
  matched individual cells with E1 lower after treatment: 10/13
  matched individual cells with E2 lower after treatment: 7/10
  matched individual cells with viscosity η lower after treatment: 6/11
NIH3T3 cells [1]; [7]
  change in viscoelastic behavior, force-displacement curve of probe 1: appears to be unchanged
  change in viscoelastic behavior, force-displacement curve of probe 4: change in elastic rebound behavior
  change in viscoelastic behavior, force-displacement curves of probes 2 and 3: clear decrease in stiffness
NIH3T3 cells [1]; NIH3T3 cells, low dose (1 μM)
  elasticity of treated cells: treated cells were less elastic
NIH3T3 cells [2]
  change in cell morphology: only a slight change in cell morphology
Fibroblasts [3]
  changes in the morphology of fibroblasts: does not produce large changes in the morphology
Fibroblasts [4]
  cell migration: inhibit cell migration
Fibroblasts [5]
  change in Young's modulus by AFM indentation: minimal, if any, measurable change in Young's modulus
